# Measured values taken from US20250059206A1, “FUSED RING COMPOUND ACTING AS SHP2 INHIBITOR” (priority 2021, published 2025).
# Test system: MIA PaCa-2 cells
# Assay: In vitro anti-proliferative activity against MIA PaCa-2 cells
# Format: cell-based
# Details: Homo sapiens, viability 72 h after dosing by intracellular ATP content, versus DMSO group
# Method: Example 50. In Vtro Anti-Proliferative Activity of Compounds of the Present Invention Against MIA PaCa-2 Cells
# MIA PaCa-2 cells were seeded on a 96-well plate at 3000 cells/well. After overnight adherence culture, DMSO or the compounds serially diluted 1:5 from […] were added. The viability was assessed 72 h after dosing by measuring the intracellular ATP content. The inhibition percentages of viable cells by the compounds were calculated by comparing with the DMSO group, and the IC50 values were calculated.
row,SMILES,IC50
1,N[C@@H]1c2ccccc2CC12CCN(c1cnc3c(N4CCN5CCCc6cccc4c65)n[nH]c3n1)CC2 [Compound 1],35.1 nM
2,N[C@@H]1c2ccccc2CC12CCN(c1cnc3c(N4CCN5C(=O)CCc6cccc4c65)n[nH]c3n1)CC2 [Compound 3],5.1 nM
3,N[C@@H]1c2ccccc2CC12CCN(c1cnc3c(N4CCn5c(=O)ccc6cccc4c65)n[nH]c3n1)CC2 [Compound 6],6.5 nM
4,N[C@@H]1c2ccccc2CC12CCN(c1cnc3c(N4CCN5C(=O)CCc6cc(F)cc4c65)n[nH]c3n1)CC2 [Compound 9],8.9 nM
5,N[C@@H]1c2ccccc2CC12CCN(c1cnc3c(N4CCN5C(=O)CCc6c(F)ccc4c65)n[nH]c3n1)CC2 [Compound 10],12.1 nM
6,N[C@@H]1c2cccnc2CC12CCN(c1cnc3c(N4CCN5C(=O)CCc6cccc4c65)n[nH]c3n1)CC2 [Compound 12],5.8 nM
7,N[C@@H]1c2cccnc2CC12CCN(c1cnc3c(N4CCn5c(=O)ccc6cccc4c65)n[nH]c3n1)CC2 [Compound 14],7.2 nM
8,N[C@@H]1c2cccnc2CC12CCN(c1cnc3c(N4CCN5C(=O)CCc6cc(F)cc4c65)n[nH]c3n1)CC2 [Compound 16],9.3 nM
9,NC1c2cccnc2CC12CCN(c1cnc3c(N4CCN5C(=O)CCc6c(F)ccc4c65)n[nH]c3n1)CC2 (stereo not drawn) [Compound 17],10.8 nM
10,N[C@@H]1c2cc(O)ccc2CC12CCN(c1cnc3c(N4CCN5C(=O)CCc6cccc4c65)n[nH]c3n1)CC2 [Compound 21],11.3 nM
11,COc1cccc2c1CC1(CCN(c3cnc4c(N5CCN6C(=O)CCc7cccc5c76)n[nH]c4n3)CC1)[C@@H]2N [Compound 24],9.6 nM
12,N[C@@H]1c2ccc(F)nc2CC12CCN(c1cnc3c(N4CCN5C(=O)CCc6cccc4c65)n[nH]c3n1)CC2 [Compound 26],8.1 nM
13,N[C@@H]1c2ccc(Cl)nc2CC12CCN(c1cnc3c(N4CCN5C(=O)CCc6cccc4c65)n[nH]c3n1)CC2 [Compound 27],15.9 nM
14,N[C@@H]1c2cc(O)ccc2CC12CCN(c1cnc3c(N4CCN5C(=O)CCc6ccc(F)c4c65)n[nH]c3n1)CC2 [Compound 35],17.3 nM
15,Cc1ccc2c(c1)[C@@H](N)C1(CCN(c3cnc4c(N5CCN6C(=O)CCc7ccc(F)c5c76)n[nH]c4n3)CC1)C2 [Compound 36],12.5 nM
16,N[C@@H]1c2cc(F)ccc2CC12CCN(c1cnc3c(N4CCN5C(=O)CCc6ccc(F)c4c65)n[nH]c3n1)CC2 [Compound 37],13.9 nM
17,COc1cccc2c1CC1(CCN(c3cnc4c(N5CCN6C(=O)CCc7ccc(F)c5c76)n[nH]c4n3)CC1)[C@@H]2N [Compound 38],15.6 nM
18,N[C@@H]1c2cc(O)ccc2CC12CCN(c1cnc3c(N4CCN5C(=O)CCc6cc(F)cc4c65)n[nH]c3n1)CC2 [Compound 40],18.1 nM
19,Cc1ccc2c(c1)[C@@H](N)C1(CCN(c3cnc4c(N5CCN6C(=O)CCc7cc(F)cc5c76)n[nH]c4n3)CC1)C2 [Compound 41],13.5 nM
20,N[C@@H]1c2cc(F)ccc2CC12CCN(c1cnc3c(N4CCN5C(=O)CCc6cc(F)cc4c65)n[nH]c3n1)CC2 [Compound 42],10.1 nM
21,N[C@@H]1c2cc(O)ccc2CC12CCN(c1cnc3c(N4CCN5C(=O)CCc6c(F)ccc4c65)n[nH]c3n1)CC2 [Compound 45],11.5 nM
22,Cc1ccc2c(c1)[C@@H](N)C1(CCN(c3cnc4c(N5CCN6C(=O)CCc7c(F)ccc5c76)n[nH]c4n3)CC1)C2 [Compound 46],14 nM
23,N[C@@H]1c2cc(F)ccc2CC12CCN(c1cnc3c(N4CCN5C(=O)CCc6c(F)ccc4c65)n[nH]c3n1)CC2 [Compound 47],9.5 nM
24,COc1cccc2c1CC1(CCN(c3cnc4c(N5CCN6C(=O)CCc7c(F)ccc5c76)n[nH]c4n3)CC1)[C@@H]2N [Compound 48],19.2 nM
